This passage reports inhibition results from patent US10251889B2, “Substituted pyrazolo[1,5-a]pyrimidine compounds as Trk kinase inhibitors” (Array BioPharma, Inc., priority 2009, dated 2019).

What all share (format): biochemical
Assay [1] has as its target Jak2 (human Jak2 kinase domain, amino acids 808-1132) (Homo sapiens (Human), UniProt O60674). As to the kind of experiment: Jak2 inhibition assay (Omnia kinase assay). The following applies: 1000 nM test compound.
The target in assay [2] is Jak1 (GST-tagged human Jak1 kinase domain, amino acids 866-1154) (Homo sapiens (Human), UniProt P23458). As to the kind of experiment: Jak1 inhibition assay (Omnia kinase assay). The conditions noted are these: read-out: Jak1 (% inhibition at 1000 nM); Table 2; 1000 nM test compound. Here is the method: (§1) The assays described in Examples C, D, E and F for the determination of JAK1, JAK2, JAK3 and Tyk2 kinase activity, respectively, utilized the Omnia® Kinase fluorescence peptide substrate-based technology (Invitrogen). […] The reactions were therefore read at excitation 360 nm and emission was measured at 485 nm every 50 seconds for 45 minutes using a PerkinElmer EnVision Multilabel Plate Reader.
Sequence of Jak1 (GST-tagged human Jak1 kinase domain, amino acids 866-1154) (P23458 866-1154): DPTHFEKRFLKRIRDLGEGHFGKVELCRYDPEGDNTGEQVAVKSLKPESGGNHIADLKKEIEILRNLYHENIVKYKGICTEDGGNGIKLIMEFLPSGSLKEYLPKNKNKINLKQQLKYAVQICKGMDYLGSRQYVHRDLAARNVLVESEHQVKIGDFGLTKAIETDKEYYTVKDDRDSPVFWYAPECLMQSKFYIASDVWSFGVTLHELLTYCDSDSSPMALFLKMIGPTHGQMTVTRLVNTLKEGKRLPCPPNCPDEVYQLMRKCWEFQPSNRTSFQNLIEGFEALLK
(§2) The final buffer conditions for each of the JAK1, JAK2, JAK3 and Tyk2 assays were as follows: 25 mM HEPES, pH 7.4, 10 mM MgCl2, 0.01% Triton X-100 and 1 mM DTT.
(§3) Compounds were prepared at 50× the final concentration in DMSO by conducting 3-fold serial dilutions from a 500-μM or 1000-μM intermediate dilution to give a 10-point dosing curve having a high dose of 10 or 20 μM. Two-μL aliquots of these were transferred to a fresh plate for a ten-fold intermediate dilution with assay buffer. Five-μL aliquots of the diluted compounds were then transferred to 20-μL of assay mixtures described in Examples C, D, E and F for a final concentration of DMSO of 2%. A standard or reference compound was typically included on each assay plate to validate that plate. For each plate, percent of control (POC) values were calculated for each well according to the following equation:
(§4) where Xmax=Average Uninhibited Controls • Xmin=Average Background IC50's were estimated from the POC's using a standard 4-parameter logistic model:
(§5) where A=Minimum Y (Bottom Asymptote) • B=Maximum Y (Top Asymptote) • C=EC50 • D=Slope Factor • X=Compound Concentration (nM) • Y=POC
(§6) The IC50 is defined as the concentration of inhibitor at which the POC equals 50 for the fitted curve.
Compounds of Formula I were screened for their ability to inhibit Jak1 using the general enzyme inhibition assay method, in which the assay mixture contained 500 μM ATP, 8 μM Omnia® Y12 peptide (Catalog # IVGN KPZ3121C; Invitrogen Corporation, Carlsbad, Calif.) and 5 nM Jak1 in a total volume of 20 μL. […] (catalog # IVGN PV4774).

Assay [3] addresses Tyk2 (human Tyk2 kinase domain, amino acids 886 to 1187) (Homo sapiens (Human), UniProt P29597). As to the kind of experiment: Tyk2 inhibition assay (Omnia kinase assay). The conditions noted are these: read-out: Tyk2 (% inhibition at 1000 nM); Table 2; 1000 nM test compound. As for the experimental part: as §1, §2, §3, §4, §5, §6
Compounds of Formula I were screened for their ability to inhibit Tyk2 using the general enzyme inhibition assay method, in which the assay mixture contained 500 μM ATP, 8 μM Omnia® Y12 peptide (Catalog # IVGN KPZ3121C; Invitrogen Corporation, Carlsbad, Calif.) and 1 nM Tyk2 in a total volume of 20 μL. Human Tyk2 kinase domain, comprising amino acids 886 to 1187 with 10 additional histidine residues (histidine tag) on the carboxy terminus, was expressed and purified from baculovirus in-house at Array BioPharma Inc. (Boulder, Colo.). The histidine tag was cleaved after purification using standard conditions.

Assay [4] has as its target Jak3 (GST-tagged human Jak3 kinase domain, amino acids 781-1124) (Homo sapiens (Human), UniProt P52333). As to the kind of experiment: Jak3 inhibition assay (Omnia kinase assay). The conditions noted are these: read-out: Jak3 (% inhibition at 1000 nM); Table 2; 1000 nM test compound. As for the experimental part:
as §1, §2, §3, §4, §5, §6
Compounds of Formula I were screened for their ability to inhibit Jak3 using the general enzyme inhibition assay method, in which the assay mixture contained 500 μM ATP, 10 μM Omnia® Y7 peptide (Catalog # IVGN KNZ3071C, Invitrogen Corporation, Carlsbad, Calif.) and 1.5 nM Jak3 in a total volume of 20 μL. GST-tagged human Jak3 kinase domain comprising amino acids 781-1124 was purchased from Invitrogen Corporation, Carlsbad, Calif. (catalog # IVGN PV3855).

Setting [5] is: read-out: Jak2 (% inhibition at 1000 nM), Table 2.
Where [6] appears, read: read-out: Jak2 Enzyme (% inhibition at 1000 nM), Table 1.

Where two headings read alike, the source gives them in different places.

Sequence of Jak2 (human Jak2 kinase domain, amino acids 808-1132) (O60674 808-1132): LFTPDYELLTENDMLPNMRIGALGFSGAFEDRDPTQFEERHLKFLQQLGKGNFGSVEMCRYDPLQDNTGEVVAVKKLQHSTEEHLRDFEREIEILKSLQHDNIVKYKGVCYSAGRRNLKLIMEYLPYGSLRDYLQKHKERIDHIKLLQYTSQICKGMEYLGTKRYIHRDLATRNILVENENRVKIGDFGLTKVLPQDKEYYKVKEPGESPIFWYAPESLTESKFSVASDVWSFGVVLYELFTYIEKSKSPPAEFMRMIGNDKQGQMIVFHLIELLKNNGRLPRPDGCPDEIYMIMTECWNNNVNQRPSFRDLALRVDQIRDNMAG
Sequence of Jak3 (GST-tagged human Jak3 kinase domain, amino acids 781-1124) (P52333 781-1124): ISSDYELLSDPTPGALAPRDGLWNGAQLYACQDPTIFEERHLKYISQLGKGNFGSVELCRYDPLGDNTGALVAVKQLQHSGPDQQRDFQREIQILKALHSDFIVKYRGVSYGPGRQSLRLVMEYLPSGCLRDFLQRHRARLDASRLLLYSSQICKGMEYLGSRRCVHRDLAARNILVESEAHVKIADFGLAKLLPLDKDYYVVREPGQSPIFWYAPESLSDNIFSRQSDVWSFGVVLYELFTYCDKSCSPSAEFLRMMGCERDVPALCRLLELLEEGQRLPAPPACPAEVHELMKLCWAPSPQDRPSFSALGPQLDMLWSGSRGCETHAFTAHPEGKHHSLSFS
Sequence of Tyk2 (human Tyk2 kinase domain, amino acids 886 to 1187) (P29597 886-1187): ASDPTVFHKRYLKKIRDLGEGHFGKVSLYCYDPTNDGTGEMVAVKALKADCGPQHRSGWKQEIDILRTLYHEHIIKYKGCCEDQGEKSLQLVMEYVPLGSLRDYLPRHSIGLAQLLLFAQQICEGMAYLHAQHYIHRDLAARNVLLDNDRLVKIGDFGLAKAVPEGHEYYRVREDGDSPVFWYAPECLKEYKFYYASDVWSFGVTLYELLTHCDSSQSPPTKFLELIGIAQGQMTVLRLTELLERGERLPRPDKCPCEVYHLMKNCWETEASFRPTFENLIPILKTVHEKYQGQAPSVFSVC

With `NC(=O)c1cnn2ccc(N3CCC[C@@H]3c3cc(F)ccc3F)nc12` [Example 30, (R)-5-(2-(2,5-difluorophenyl)pyrrolidin-1-yl)pyrazolo[1,5-a]pyrimidine-3-carboxamide], the inhibition at 1 µM in assay [1] (setting [5]) was determined as 30.4%; in assay [1] (setting [6]), 25.7%; in assay [2], 13.4%; in assay [3], 11.3%; in assay [4], 2.9%.
As for `O=C(NC1CC1)c1cnn2ccc(N3CCC[C@@H]3c3cncc(F)c3)nc12` [Example 52, (R)—N-cyclopropyl-5-(2-(5-fluoropyridin-3-yl)pyrrolidin-1-yl)pyrazolo[1,5-a]pyrimidine-3-carboxamide], the inhibition at 1 µM turned out to be 13% in assay [1] (setting [5]); 9.4% in assay [1] (setting [6]); 8.6% in assay [2]; 13.8% in assay [3]; 0.8% in assay [4].
In the same order, the values of `CC1(NC(=O)c2cnn3ccc(N4CCC[C@@H]4c4cncc(F)c4)nc23)CC1` [Example 91, (R)-5-(2-(5-fluoropyridin-3-yl)pyrrolidin-1-yl)-N-(1-methylcyclopropyl)pyrazolo[1,5-a]pyrimidine-3-carboxamide] are 42.1%, 34.9%, 20.3%, 14.8% and 8.3%.
For the compound `CC(C)NC(=O)c1cnn2ccc(N3CCC[C@@H]3c3cncc(F)c3)nc12` [Example 93, (R)-5-(2-(5-fluoropyridin-3-yl)pyrrolidin-1-yl)-N-isopropylpyrazolo[1,5-a]pyrimidine-3-carboxamide], the inhibition at 1 µM came out at 42.2% in assay [1] (setting [5]); 34.7% in assay [1] (setting [6]); 19.7% in assay [2]; 17.2% in assay [3]; 10.6% in assay [4].
For `O=C(NC1(C(F)(F)F)CC1)c1cnn2ccc(N3CCC[C@@H]3c3cncc(F)c3)nc12` [Example 98, (R)-5-(2-(5-fluoropyridin-3-yl)pyrrolidin-1-yl)-N-(1-(trifluoromethyl)cyclopropyl)pyrazolo[1,5-a]pyrimidine-3-carboxamide] the same measures were 27.8%, 23.7%, 8.8%, 9.2% and 5.5%.
For `O=C(NCC1CC1)c1cnn2ccc(N3CCC[C@@H]3c3cncc(F)c3)nc12` [Example 106, (R)-N-(cyclopropylmethyl)-5-(2-(5-fluoropyridin-3-yl)pyrrolidin-1-yl)pyrazolo[1,5-a]pyrimidine-3-carboxamide] the same measures were 21%, 8%, 8.2%, 14.8% and 9.7%.
In the case of `CNC(=O)c1cnn2ccc(N3CCC[C@@H]3c3cncc(F)c3)nc12` [Example 114, (R)-5-(2-(5-fluoropyridin-3-yl)pyrrolidin-1-yl)-N-methylpyrazolo[1,5-a]pyrimidine-3-carboxamide], the inhibition at 1 µM was 15.6% in assay [1] (setting [5]); 5% in assay [1] (setting [6]); 10.9% in assay [2]; 11.4% in assay [3]; 8.5% in assay [4].
For `C[C@@H](NC(=O)c1cnn2ccc(N3CCC[C@@H]3c3cncc(F)c3)nc12)C1CC1` [Example 123, N-((R)-1-cyclopropylethyl)-5-((R)-2-(5-fluoropyridin-3-yl)pyrrolidin-1-yl)pyrazolo[1,5-a]pyrimidine-3-carboxamide] the same measures were 49.1%, 38.8%, 22%, 14.4% and 8.9%.
For `C[C@H](NC(=O)c1cnn2ccc(N3CCC[C@@H]3c3cncc(F)c3)nc12)C1CC1` [Example 124, N-((S)-1-cyclopropylethyl)-5-((R)-2-(5-fluoropyridin-3-yl)pyrrolidin-1-yl)pyrazolo[1,5-a]pyrimidine-3-carboxamide], the inhibition at 1 µM amounted to 72.3% in assay [1] (setting [5]); 53.3% in assay [1] (setting [6]); 36.4% in assay [2]; 16.2% in assay [3]; 7.2% in assay [4].
For `COc1ncc(F)cc1[C@H]1CCCN1c1ccn2ncc(C(=O)N[C@H]3CC[C@H](O)CC3)c2n1` [Example 140, 5-((R)-2-(5-fluoro-2-methoxypyridin-3-yl)pyrrolidin-1-yl)-N-((trans)-4-hydroxycyclohexyl)pyrazolo[1,5-a]pyrimidine-3-carboxamide] the same measures were 98.5%, 90.1%, 64.2%, 34.8% and 20.2%.
In the same order, the values of `Cc1ncc(F)cc1[C@H]1CCCN1c1ccn2ncc(C(=O)NC3(C)CC3)c2n1` [Example 190, (R)-5-(2-(5-fluoro-2-methylpyridin-3-yl)pyrrolidin-1-yl)-N-(1-methylcyclopropyl)pyrazolo[1,5-a]pyrimidine-3-carboxamide] are 33.9%, 28.4%, 14.3%, 13.4% and 7.2%.
In the same order, the values of `Cc1ncc(F)cc1[C@H]1CCCN1c1ccn2ncc(C(=O)N[C@H]3CC[C@H](O)CC3)c2n1` [Example 194, 5-((R)-2-(5-fluoro-2-methylpyridin-3-yl)pyrrolidin-1-yl)-N-((trans)-4-hydroxycyclohexyl)pyrazolo[1,5-a]pyrimidine-3-carboxamide] are 37.6%, 31.2%, 7.4%, 8.1% and 2.6%.
Turning to `Cn1cc(F)cc([C@H]2CCCN2c2ccn3ncc(C(=O)Nc4ccc(F)cn4)c3n2)c1=O` [Example 239, (R)-5-(2-(5-fluoro-1-methyl-2-oxo-1,2-dihydropyridin-3-yl)pyrrolidin-1-yl)-N-(5-fluoropyridin-2-yl)pyrazolo[1,5-a]pyrimidine-3-carboxamide], the inhibition at 1 µM in assay [1] (setting [6]) was 15.5%.

As a reminder, the inhibition is the share of the control response that was lost under treatment.
